{"source": "patent US9029092B2", "about": "“Solution phase homogeneous assays” (Beckman Coulter, Inc., priority 2009, dated 2015)", "system": "Rabbit anti cAMP", "from_the_text": "There are provided homogeneous immunoassays of an analyte utilizing a chemiluminescent-labeled capture antibody in combination with labeled analyte in a competitive immunoassay reaction. The example analyte cyclic-AMP (“cAMP”) is conjugated with HRP to provide a cAMP-HRP reagent, which competes for analyte cAMP at the capture antibody (“Capture Ab”) which is conjugated with AK5 to form a capture antibody-AK5 complex. […] Analyte (cAMP) which is not conjugated with HRP competes for the […], and upon addition of trigger solution the resulting capture antibody-AK5-cAMP complex provides no chemiluminescence (i.e., “No Light”). Accordingly, analyte cAMP competes for capture antibody-AK5 complex and thereby suppresses signal due to the capture antibody-AK1-cAMP-HRP complex.\nRabbit anti cAMP (IMMUNOTECH, Marseille) 0.1 mg (20.3 uL from 4.93 mg/mL stock) was added to 162 uL of 0.1 M sodium borate pH 8.25 buffer in 1.7 mL centrifuge tube. 17.6 ug of AK5 (17.6 ul from 1 mg/mL stock of DMF) was added. After quick vortex mixing tube was placed on a rotating shaker for 1 hour at room temperature. Reaction was quenched by adding 1.2 uL of L-lysine from 3 mg/mL stock. Reaction mixture was diluted (1:1) in 0.4% BSA and PBS and stored at 4 C. cAMP-HRP was prepared according to the literature. […] A 30 nM stock of cAMP was prepared in PBS and further diluted in PBS to make sample calibrators for the assay.\nThe competitive immunoassay protocol was as follows. AK5 labeled monoclonal Rabbit anti cAMP (0.275 ug/mL) (3 uL), HRP labeled cAMP (0.09375 ug/mL) (3 ul) and cAMP calibrators (4 ul) were added into a white polystyrene 384 low volume plate. Conjugate solutions were 0.2% in BSA. After incubation of 30 minutes at room temperature, 1 ul of 2-aminophenol (0.6875 mM) was added followed by a trigger solution (10 ul). The trigger solution contained 25 mM Tris pH 8, 8 mM p-hydroxycinnamic acid, 1 mM EDTA, 0.2% Tween-20 and 0.1 M ureaperoxide. Light intensity was measured (Spectromax) for one second immediately upon injection of trigger. Reactants were not exposed to light during incubation and were not shaken.", "note": "Where two headings read alike, the source gives them in different places.", "data": [{"smiles": "Nc1ncnc2c1ncn2[C@@H]1O[C@@H]2COP(=O)(O)O[C@H]2[C@H]1O", "note": "[cAMP, cyclic-AMP]", "values": [{"measurement": "Average (light intensity)", "setting": "cAMP 0.412 nM", "value": 83377}, {"measurement": "Signal Suppression", "setting": "cAMP 0.412 nM", "value": 9, "unit": "%"}, {"measurement": "Average (light intensity)", "setting": "cAMP 3.7 nM", "value": 31156}, {"measurement": "Signal Suppression", "setting": "cAMP 3.7 nM", "value": 66, "unit": "%"}, {"measurement": "Average (light intensity)", "setting": "cAMP 33.3 nM", "value": 943}, {"measurement": "Signal Suppression", "setting": "cAMP 33.3 nM", "value": 99, "unit": "%"}, {"measurement": "Average (light intensity)", "setting": "cAMP 100 nM", "value": 315}, {"measurement": "Signal Suppression", "setting": "cAMP 100 nM", "value": 100, "unit": "%"}, {"measurement": "Average (light intensity)", "setting": "cAMP 1000 nM", "value": 173}, {"measurement": "Signal Suppression", "setting": "cAMP 1000 nM", "value": 100, "unit": "%"}, {"measurement": "Average (light intensity)", "setting": "cAMP 10000 nM", "value": 167}, {"measurement": "Signal Suppression", "setting": "cAMP 10000 nM", "value": 100, "unit": "%"}, {"measurement": "IC50", "setting": "read-out: IC50 for cAMP, competition with cAMP-HRP at AK5-labeled antibody, 2-aminophenol as SSIA", "value": 2.6, "unit": "nM"}]}]}
